Measurements from ChEMBL document CHEMBL1136317, “A general synthesis of 1-aryl carbamoyl-2-alkyl-4-aryl substituted semicarbazides as nonbasic factor Xa inhibitors” (Bioorg Med Chem Lett, 2003).

Target: Coagulation factor X (Homo sapiens, UniProt P00742)
Test: Inhibitory activity against human Coagulation factor X in a purified enzyme system

Sequence of Coagulation factor X (P00742 41-179 limits assumed): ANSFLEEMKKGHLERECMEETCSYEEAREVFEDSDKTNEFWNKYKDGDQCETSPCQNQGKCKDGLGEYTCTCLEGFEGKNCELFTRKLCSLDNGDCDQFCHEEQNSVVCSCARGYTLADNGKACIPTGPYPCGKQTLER
Sequence of Coagulation factor X (P00742 235-488 limits assumed): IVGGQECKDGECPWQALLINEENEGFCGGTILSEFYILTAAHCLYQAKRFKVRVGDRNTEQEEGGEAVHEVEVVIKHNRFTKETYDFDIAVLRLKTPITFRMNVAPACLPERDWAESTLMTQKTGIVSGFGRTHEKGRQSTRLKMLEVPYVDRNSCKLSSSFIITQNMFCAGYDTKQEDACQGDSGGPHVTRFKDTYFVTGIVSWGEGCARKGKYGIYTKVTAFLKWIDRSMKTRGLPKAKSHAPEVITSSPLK

For `CC(NC(=O)Nc1ccc(Cl)cc1)C(=O)Nc1ccc(N2CCOCC2=O)cc1` (single isomer, unassigned), the IC50 was 78 nM.

`CCC(NC(=O)Nc1ccc(Cl)cc1)C(=O)Nc1ccc(N2CCOCC2=O)cc1` (single isomer, unassigned) was tested, and the IC50 was 17 nM.
